Assays:
[1] = Hepatocyte stability, dog
Description: • 1. 10 mM stock solutions of test compounds and positive control compound were prepared in appropriate solvent (DMSO). • 2. In separate conical tubes, 10 mM test compound and positive controls were diluted to 100 μM by combining 198 μL of 50% acetonitrile/50% water and 2 μL of 10 mM stock. Preparation of Hepatocytes • 1. Incubation medium (William's E Medium supplemented with GlutaMAX) and hepatocyte thawing medium were placed in a 37C water bath and warmed for at least 15 minutes prior to use. • 2. A vial of cryopreserved hepatocytes was thawed by placing the vial in a 37C water bath and gently shaken for 2 minutes. After thawing was completed, the vial was cleaned with 70% ethanol and transferred to a biosafety cabinet. • 3. Using wide-bore pipette tips, hepatocytes were transferred into a 50 mL conical tube containing thawing medium. The 50 mL conical tube was placed into a centrifuge and spun at 100 g for 10 minutes. […] Using AO/PI Staining, cells were counted to determine the viable cell density. Cells were diluted with incubation medium to a working cell density of 0.5×10^6 viable cells/mL. Procedure for Stability Determination • 1. 198 μL of hepatocytes were pipetted into each well of a 96-well non-coated plate. The plate was placed in the incubator to allow the hepatocytes to warm for 10 minutes. • 2. 2 μL of the 100 μM test compound or positive control was pipetted into respective wells of the 96-well non-coated plate to start the reaction. The plate was returned to the incubator for the designed time points. • 3. The contents of the wells were removed in 25 μL aliquots at time points of 0.5, 15, 30, 60, 90 and 120 minutes. The aliquots were then mixed with 6 volumes (150 μL) of acetonitrile containing an internal standard, IS (100 nM alprazolam, 200 nM caffeine and 100 nM tolbutamide), to terminate the reaction. Samples were vortexed for 5 minutes and centrifuged for 45 minutes at 3,220 g. Aliquots of 100 μL of supernatant were diluted with 100 μL ultra-pure water, and the mixture was used for LC/MS/MS analysis. All incubations were performed in duplicate. Data Analysis
All calculations were carried out using Microsoft Excel and according to standard analysis methods that are known in the art.

CYP2E1 = CYP2E1 (Homo sapiens, UniProt P05181); test: Incubation with recombinant CYP2E1; conditions: for t1/2: unit not given
Chain of CYP2E1 (P05181 whole entry): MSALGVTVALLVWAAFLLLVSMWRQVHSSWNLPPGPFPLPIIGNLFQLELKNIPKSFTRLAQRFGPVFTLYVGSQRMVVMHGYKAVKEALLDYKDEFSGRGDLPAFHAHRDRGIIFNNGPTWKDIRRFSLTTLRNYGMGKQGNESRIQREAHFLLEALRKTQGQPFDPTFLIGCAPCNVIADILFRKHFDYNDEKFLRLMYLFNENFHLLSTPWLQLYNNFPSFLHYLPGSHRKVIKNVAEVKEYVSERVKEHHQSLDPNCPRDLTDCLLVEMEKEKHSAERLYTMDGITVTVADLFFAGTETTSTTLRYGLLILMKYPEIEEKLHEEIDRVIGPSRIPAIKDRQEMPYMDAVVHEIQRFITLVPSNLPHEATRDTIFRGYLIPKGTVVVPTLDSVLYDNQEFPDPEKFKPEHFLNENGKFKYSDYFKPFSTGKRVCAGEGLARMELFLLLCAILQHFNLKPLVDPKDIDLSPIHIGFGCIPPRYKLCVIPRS

CYP2B6 = biological target: T1, CYP2B6 (Homo sapiens, UniProt P20813); test: Incubation with recombinant CYP2B6; conditions: for t1/2: unit not given
T1 sequence (P20813 1-491): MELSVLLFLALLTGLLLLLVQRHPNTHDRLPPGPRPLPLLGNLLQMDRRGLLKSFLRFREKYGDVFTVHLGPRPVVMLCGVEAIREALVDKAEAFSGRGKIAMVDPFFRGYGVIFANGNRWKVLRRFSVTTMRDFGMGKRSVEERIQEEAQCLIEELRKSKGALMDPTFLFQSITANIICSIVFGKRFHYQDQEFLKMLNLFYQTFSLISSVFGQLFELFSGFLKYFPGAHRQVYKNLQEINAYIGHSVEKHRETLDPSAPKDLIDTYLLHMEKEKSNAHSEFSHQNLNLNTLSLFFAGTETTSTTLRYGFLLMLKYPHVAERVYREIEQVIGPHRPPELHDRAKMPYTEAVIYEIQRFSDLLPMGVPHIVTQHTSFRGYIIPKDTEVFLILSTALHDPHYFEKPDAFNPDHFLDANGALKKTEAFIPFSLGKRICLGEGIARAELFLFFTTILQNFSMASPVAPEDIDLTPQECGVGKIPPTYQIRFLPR

[2] = tested on: haloperidol-induced catalepsy; test: Haloperidol-induced catalepsy (bar test); type: in vivo, Sprague Dawley rats; conditions: for time spent holding bar, haloperidol-induced catalepsy: rats, haloperidol 1 mg/kg sc, Rac-THP 10, 20, 30 mg/kg, R-THP or S-THP 5, 10, 15 mg/kg ip
Description: Animals: Adult male Sprague Dawley rats (230-235 g) from Envigo were used in this study. Upon receipt, rats were group housed in ventilated cages and acclimated for one week prior to testing.
The front paws of a rat were placed then on a horizontal metal bar raised 6″ above a Plexiglas platform. Each rat underwent 3 trials of 60 seconds each. The test ended when the animal's front paws return to the platform or after 60 seconds. Rats were tested at 30 and 60 minutes after treatment.
Data were analyzed by one-way analysis of variance (ANOVA) followed by Tukey's post-hoc comparisons, where appropriate. Data are represented as mean and standard error to the mean (SEM).

[3] = human, in vivo
Description: Experimental Design: All of the data collected in this example were run in a double-blind, randomized, placebo controlled setting of normal healthy adults. […] Dizziness was measured by the visual analog scale (VAS), a common clinical measure of dizziness.

With C[C@@H](C[N+](C)(C)C)OC(N)=O.[Cl-] [(S)-BTC, (S)-bethanechol] the “Predicted Hepatic CLH” value ([1]; hepatocytes) was 0 mL/min/kg and the “in vitro t1/2” value ([1]; hepatocytes) was “∞”.

For O[C@](CCN1CCCCC1)(c1ccccc1)C1CCCCC1 [(S)-THP, (S)-trihexyphenidyl], the CLint (CYP2E1) was 0.00 µL/min/pmol, the t1/2 (CYP2E1) was “∞” and the CLint (CYP2B6) was 0.00 µL/min/pmol. The t1/2 (CYP2B6) was “∞”, the “time spent holding bar, haloperidol-induced catalepsy” value (“time spent holding bar” below) ([2]; 30 minutes after injection) was “did not significantly differ from those of haloperidol-treated rats” and the “time spent holding bar” value ([2]; 60 minutes after injection) was “no significant differences”.

With O[C@@](CCN1CCCCC1)(c1ccccc1)C1CCCCC1 [(R)-THP, (R)-trihexyphenidyl] the “share of exposure that is R-THP” value [3] was 85%, the CLint (CYP2E1) was 0.00 µL/min/pmol and the t1/2 (CYP2E1) was “∞”. For the same compound, the CLint (CYP2B6) was 0.00 µL/min/pmol, the t1/2 (CYP2B6) was “∞” and the CLint scaled at 1 μM ([1]; cryopreserved hepatocytes) was 187 mL/min/kg. The half-life at 1 μM ([1]; cryopreserved hepatocytes) was 40.2 min, the hepatocyte CLint at 1 μM ([1]; cryopreserved hepatocytes) was 34.5 µL/min/1e6 cells and the “time spent holding bar” value ([2]; 30 minutes after injection) was “significantly attenuated haloperidol-induced catalepsy”. The “time spent holding bar” value ([2]; 60 minutes after injection) was “significantly attenuated haloperidol-induced catalepsy” and the “Efficacy of R-THP versus Rac-THP over a dosage range” value ([2]; catalepsy control, FIG. 6) was “half a dose of R-THP controls catalepsy at least as effectively as a full dose of Rac-THP”.
